Values of other authors, collected in US20140234430A1, “PHARMACEUTICAL METHODS AND TOPICAL COMPOSITIONS CONTAINING ACITRETIN” (DOUGLAS PHARMACEUTICALS LTD., priority 2011, published 2014).

Question: What does the source list for `COc1cc(C)c(/C=C/C(C)=C/C=C/C(C)=C/C(=O)O)c(C)c1C` [acitretin, (2E,4E,6E,8E)-9-(4-methoxy-2,3,6-trimethylphenyl)-3,7-dimethylnona-2,4,6,8-tetraenoic acid]?
Answer: Solubility in alcohols (suitable alcohols): quite poorly soluble; Solubility in water (water): very poorly soluble
